Reference: patent US20030216334A1, “Methods for inhibiting/treating hiv infections and aids related symptoms” (priority 2003, published 2003)
In brackets after ≈: the same amount, converted by molar mass.

Legend:
[1] = test system: HIV-1 attachment and entry into target cells; test: microbe, parasite or virus in culture
Description: (§1) 2) Inhibition of HIV-1 attachment and entry into target cells.

gp120 binding to CD4 = gp120 binding to CD4 (UniProt P01730+P04578); test: gp120/CD4 binding, cell-associated viral p24 antigen read-out
Description: as §1

[2] = test system: HeLa CD4 LTR β-gal and HL2/3 cells; test: Cell-to-cell fusion assay in the absence of virus
Description: as §1

L100I = test: microbe, parasite or virus in culture; type: cell-based, HIV; conditions: Human immunodeficiency virus 1, virus L100I
Procedure: (§2) Effect on Drug-Resistant Mutants. […] Viral cytopathogencity was determined by Serquest Inc., a Division of Southern Research Institute, Gaithersburg Md. using the tetrazolium-based calorimetric assay, and the data were analyzed using a program developed by the Southern Research Institute. A number of viruses were used in these studies, which include some that are resistant to both the NNRTIs and NRTIs.

Y181C = test: microbe, parasite or virus in culture; type: cell-based, HIV; conditions: Human immunodeficiency virus 1
Procedure: as §2

DPS-R (Y181C) = test: microbe, parasite or virus in culture; type: cell-based, HIV; conditions: Human immunodeficiency virus 1
Procedure: as §2

K103N = test: microbe, parasite or virus in culture; type: cell-based, HIV; conditions: Human immunodeficiency virus 1, virus K103N
Procedure: as §2

NL4-3 (wild type) = test: Viral cytopathogenicity, tetrazolium-based colorimetric assay, NL4-3; conditions: Human immunodeficiency virus 1, NL43
Procedure: as §2

[3] = as above
Procedure: as §2

in vitro = test: in vitro
Procedure: as §2

4XAZT = test: microbe, parasite or virus in culture; conditions: Human immunodeficiency virus 1
Procedure: as §2

HIV IIIB (wild type) = test: Viral cytopathogenicity, tetrazolium-based colorimetric assay, IIIB; type: cell-based
Procedure: as §2

[4] = Human immunodeficiency virus 1, IIIB

Structure (SMILES) | TC50 ([1]; Attachment) [µg/mL] | IC50 ([1]; Human immunodeficiency virus 1, HeLa) [µg/mL] | TI (gp120 binding to CD4; gp120/CD4 Binding) | CC50 (gp120 binding to CD4; human, HIV-1 infected HeLa CD4 LTR β-gal cells) [µg/mL] | IC50 [2] [µg/mL] | TC50 ([2]; Fusion) [µg/mL] | IC50 (L100I) [nM] | IC50 (Y181C) [nM] | IC50 (DPS-R (Y181C)) [nM] | IC50 (K103N) [nM] | IC50 (NL4-3 (wild type)) [nM] | CC50 [3] [nM] | CC50 (in vitro) [nM] | IC50 (4XAZT) [nM] | IC50 (HIV IIIB (wild type); [4]) [nM] | IC50 (HIV IIIB (wild type); virus IIIB) [nM]
COc1cc(-c2ccc(/N=N/c3ccc4c(S(=O)(=O)O)cc(S(=O)(=O)O)c(N)c4c3O)c(OC)c2)ccc1/N=N/c1ccc2c(S(=O)(=O)O)cc(S(=O)(=O)O)c(N)c2c1O [CSB, Chicago Sky Blue] | >10 | 1.19 (≈ 1.32 µM) | 8.3 | > 10 | 0.67 (≈ 0.74 µM) | >10 |  |  |  |  |  |  |  |  |  | 
Cc1ccnc2c1NC(=O)c1cccnc1N2C1CC1 [Nevirapine, nevirapine] |  |  |  |  |  |  | 150 | 1030 | ≥ 10000 | 3200 | 60 | 10000 | 1000 | 50 | 30 | 
Cc1cn([C@H]2C[C@H](N=[N+]=[N-])[C@@H](CO)O2)c(=O)[nH]c1=O [AZT, zidovudine] |  |  |  |  |  |  | 3 | 10 | 20 |  | 60 | 1000 |  | ≥ 1000 | 3 | 3.2
